Assay results as given in ChEMBL document CHEMBL3046251, “3D-QSAR CoMFA and CoMSIA studies for design of potent human steroid 5-reductase inhibitors” (Med Chem Res, 2013).

Biological target: T1, 3-oxo-5-alpha-steroid 4-dehydrogenase 2 (Homo sapiens, UniProt P31213)
T1 sequence (P31213 whole entry): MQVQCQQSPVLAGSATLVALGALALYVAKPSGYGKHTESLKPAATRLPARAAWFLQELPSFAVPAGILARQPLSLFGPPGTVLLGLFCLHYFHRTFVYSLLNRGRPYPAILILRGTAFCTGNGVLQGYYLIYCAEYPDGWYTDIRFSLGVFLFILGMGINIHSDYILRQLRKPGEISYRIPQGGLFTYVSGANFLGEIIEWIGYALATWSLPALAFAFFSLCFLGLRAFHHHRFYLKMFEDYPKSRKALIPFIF
Experiment: Inhibition of Homo sapiens (human) Steroid 5-alpha-reductase type 2

| SMILES | IC50 [nM] |
| --- | --- |
| C[C@]12CC[C@H]3[C@@H](CNC4=CC(=O)CC[C@@]43C)[C@@H]1CC[C@@H]2C(=O)OC1C2CC3CC(C2)CC1C3 (some centres undefined) | 0.04 |
| C[C@]12CC[C@H]3[C@@H](CNC4=CC(=O)CC[C@@]43C)[C@@H]1CC[C@@H]2C(=O)Nc1cc(C(F)(F)F)cc(C(F)(F)F)c1 | 0.2 |
| CN1C[C@H]2[C@@H]3CC[C@H](C(=O)NC(c4ccccc4)c4ccccc4)[C@@]3(C)CC[C@@H]2[C@@]2(C)CCC(=O)C=C12 | 0.2 |
| C[C@]12CC[C@H]3[C@@H](CNC4=CC(=O)CC[C@@]43C)[C@@H]1CC[C@@H]2C(=O)NC(c1ccccc1)(c1ccccc1)c1ccccc1 | 0.09 |
| C[C@]12CC[C@H]3[C@@H](CNC4=CC(=O)CC[C@@]43C)[C@@H]1CC[C@@H]2C(=O)NC(c1ccccc1)c1ccccc1 | 0.09 |
| CC(C)N(C(=O)[C@H]1CC[C@H]2[C@@H]3CNC4=CC(=O)CC[C@]4(C)[C@H]3CC[C@]12C)C(C)C | 0.36 |
| CN1C[C@H]2[C@@H]3CC[C@H](C(=O)NC(C)(C)C)[C@@]3(C)CC[C@@H]2[C@@]2(C)C=CC(=O)C=C12 | 6.7 |
| CON(C)C(=O)[C@H]1CC[C@H]2[C@@H]3CNC4=CC(=O)CC[C@]4(C)[C@H]3CC[C@]12C | 2.4 |
| C[C@]12CC[C@H]3[C@@H](CNC4=CC(=O)CC[C@@]43C)[C@@H]1CC[C@@H]2C(=O)NC(C1CCCCC1)C1CCCCC1 | 0.4 |
| CCN(CC)C(=O)[C@H]1CC[C@H]2[C@@H]3CN(C)C4=CC(=O)C=C[C@]4(C)[C@H]3CC[C@]12C | 5.7 |
| CCN(CC)C(=O)[C@H]1CC[C@H]2[C@@H]3CNC4=CC(=O)C=C[C@]4(C)[C@H]3CC[C@]12C | 3.5 |
| C[C@]12CC[C@H]3[C@@H](CNC4=CC(=O)CC[C@@]43C)[C@@H]1CC[C@@H]2C(=O)NC(c1ccc(Cl)cc1)c1ccc(Cl)cc1 | 0.12 |
| CC1=C2NC[C@H]3[C@@H]4CC[C@H](C(=O)NC(C)(C)C)[C@@]4(C)CC[C@@H]3[C@@]2(C)CCC1=O | 1.4 |
| CCN(C)C(=O)[C@H]1CC[C@H]2[C@@H]3CNC4=CC(=O)CC[C@]4(C)[C@H]3CC[C@]12C | 2.8 |
| CCN(CC)C(=O)[C@H]1CC[C@H]2[C@@H]3CN(C)C4=CC(=O)CC[C@]4(C)[C@H]3CC[C@]12C | 2.3 |
| CCCN1C[C@H]2[C@@H]3CC[C@H](C(=O)NC(c4ccccc4)c4ccccc4)[C@@]3(C)CC[C@@H]2[C@@]2(C)C=CC(=O)C=C12 | 1.3 |
| CN1C[C@H]2[C@@H]3CC[C@H](C(=O)NC4C5CC6CC(C5)CC4C6)[C@@]3(C)CC[C@@H]2[C@@]2(C)CCC(=O)C=C12 (some centres undefined) | 0.3 |
| CC(C)CC(=O)[C@H]1CC[C@H]2[C@@H]3CNC4=CC(=O)CC[C@]4(C)[C@H]3CC[C@]12C | 0.08 |
| CCN(CC)C(=O)[C@H]1CC[C@H]2[C@@H]3CN(C(C)C)C4=CC(=O)CC[C@]4(C)[C@H]3CC[C@]12C | 4.9 |
| CCN(CC)C(=O)[C@H]1CC[C@H]2[C@@H]3CNC4=C(Br)C(=O)CC[C@]4(C)[C@H]3CC[C@]12C | 2.1 |
| CC(C)(C)c1ccccc1NC(=O)[C@H]1CC[C@H]2[C@@H]3CNC4=CC(=O)CC[C@]4(C)[C@H]3CC[C@]12C | 0.2 |
| CCN(CC)C(=O)[C@H]1CC[C@H]2[C@@H]3CNC4=C(C)C(=O)C=C[C@]4(C)[C@H]3CC[C@]12C | 8.1 |
| C[C@]12CC[C@H]3[C@@H](CNC4=CC(=O)CC[C@@]43C)[C@@H]1CC[C@@H]2C(=O)NN(c1ccccc1)c1ccccc1 | 0.23 |
| CC(C)(C)c1ccc(-c2ccc(C(F)(F)F)cc2NC(=O)[C@H]2CC[C@H]3[C@@H]4CNC5=CC(=O)CC[C@]5(C)[C@H]4CC[C@]23C)cc1 | 0.5 |
| CCN(CC)C(=O)[C@H]1CC[C@H]2[C@@H]3CNC4=CC(=O)CC[C@]4(C)[C@H]3CC[C@]12C | 1.5 |
| CCN(CC)C(=O)[C@H]1CC[C@H]2[C@@H]3CN(C#N)C4=CC(=O)CC[C@]4(C)[C@H]3CC[C@]12C | 42 |
| CC(C)(C)NC(=O)[C@H]1CC[C@H]2[C@@H]3CNC4=CC(=O)C=C[C@]4(C)[C@H]3CC[C@]12C | 1.8 |
| CC(C)c1cc(C(C)C)c(C(=O)[C@H]2CC[C@H]3[C@@H]4CNC5=CC(=O)CC[C@]5(C)[C@H]4CC[C@]23C)c(C(C)C)c1 | 0.5 |
| C[C@]12CC[C@H]3[C@@H](CNC4=CC(=O)CC[C@@]43C)[C@@H]1CC[C@@H]2C(=O)N1CCOCC1 | 7.1 |
